Experimental data taken from PubChem BioAssay (NCI).
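Grown in 96-well plates, cells were treated for 48 hours with each compound at five concentrations. Insufficient inhibition: endpoint recorded as highest concentration tested. Abbreviation: GI50, concentration required for 50% inhibition of growth. TGI denotes the concentration required for complete inhibition of growth.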

How the values were obtained:
Test in all cases: NCI-60 cell line screen, 48 h
NCI-H23 lung = system: NCI-H23 lung
NCI-H460 lung = system: NCI-H460 lung
NCI-H522 lung = system: NCI-H522 lung
NCI/ADR-RES ovarian = system: NCI/ADR-RES ovarian
OVCAR-3 ovarian = system: OVCAR-3 ovarian
OVCAR-4 ovarian = system: OVCAR-4 ovarian
OVCAR-5 ovarian = system: OVCAR-5 ovarian
OVCAR-8 ovarian = system: OVCAR-8 ovarian
PC-3 prostate = system: PC-3 prostate
RPMI-8226 leukemia = system: RPMI-8226 leukemia
RXF 393 renal = system: RXF 393 renal
SF-268 CNS = system: SF-268 CNS
SF-295 CNS = system: SF-295 CNS
SF-539 CNS = system: SF-539 CNS
SK-MEL-2 melanoma = system: SK-MEL-2 melanoma
SK-MEL-28 melanoma = system: SK-MEL-28 melanoma
SK-MEL-5 melanoma = system: SK-MEL-5 melanoma
SK-OV-3 ovarian = system: SK-OV-3 ovarian
SN12C renal = system: SN12C renal
SNB-19 CNS = system: SNB-19 CNS
SNB-75 CNS = system: SNB-75 CNS
SW-620 colon = system: SW-620 colon
T-47D breast = system: T-47D breast
TK-10 renal = system: TK-10 renal
U251 CNS = system: U251 CNS
UACC-257 melanoma = system: UACC-257 melanoma
UACC-62 melanoma = system: UACC-62 melanoma
UO-31 renal = system: UO-31 renal

CCN(Cc1ccccc1F)c1ccc(CO)c(Cl)c1
GI50 (NCI-H23 lung): 14.6 µM | TGI (NCI-H23 lung): 57.1 µM | GI50 (NCI-H460 lung): 0.0604 µM | TGI (NCI-H460 lung): 11 µM | GI50 (NCI-H522 lung): 16.3 µM | TGI (NCI-H522 lung): 39.1 µM | GI50 (NCI/ADR-RES ovarian): 15.9 µM | TGI (NCI/ADR-RES ovarian): 52.8 µM | GI50 (OVCAR-3 ovarian): 0.176 µM | TGI (OVCAR-3 ovarian): 1.5 µM | GI50 (OVCAR-4 ovarian): 0.0793 µM | TGI (OVCAR-4 ovarian): 5.88 µM | GI50 (OVCAR-5 ovarian): 0.0428 µM | TGI (OVCAR-5 ovarian): 0.234 µM | GI50 (OVCAR-8 ovarian): 13.2 µM | TGI (OVCAR-8 ovarian): > 57 µM | GI50 (PC-3 prostate): 18.9 µM | TGI (PC-3 prostate): > 62.8 µM | GI50 (RPMI-8226 leukemia): 0.796 µM | TGI (RPMI-8226 leukemia): 22.8 µM | GI50 (RXF 393 renal): 4.35 µM | TGI (RXF 393 renal): 24.8 µM | GI50 (SF-268 CNS): 26.6 µM | TGI (SF-268 CNS): > 60.7 µM | GI50 (SF-295 CNS): 0.7 µM | TGI (SF-295 CNS): 17.2 µM | GI50 (SF-539 CNS): 16.8 µM | TGI (SF-539 CNS): 34.5 µM | GI50 (SK-MEL-2 melanoma): 1.81 µM | TGI (SK-MEL-2 melanoma): 19.9 µM | GI50 (SK-MEL-28 melanoma): 13.5 µM | TGI (SK-MEL-28 melanoma): 31.3 µM | GI50 (SK-MEL-5 melanoma): 2.66 µM | TGI (SK-MEL-5 melanoma): 21.1 µM | GI50 (SK-OV-3 ovarian): 4.28 µM | TGI (SK-OV-3 ovarian): 17.9 µM | GI50 (SN12C renal): 13.5 µM | TGI (SN12C renal): 38.6 µM | GI50 (SNB-19 CNS): 28.4 µM | TGI (SNB-19 CNS): > 94.6 µM | GI50 (SNB-75 CNS): 11 µM | TGI (SNB-75 CNS): 46.4 µM | GI50 (SW-620 colon): 0.49 µM | TGI (SW-620 colon): > 46.5 µM | GI50 (T-47D breast): < 0.0213 µM | TGI (T-47D breast): 0.177 µM | GI50 (TK-10 renal): < 0.0201 µM | TGI (TK-10 renal): 0.0651 µM | GI50 (U251 CNS): 0.256 µM | TGI (U251 CNS): 24.2 µM | GI50 (UACC-257 melanoma): < 0.0346 µM | TGI (UACC-257 melanoma): 0.134 µM | GI50 (UACC-62 melanoma): 0.0409 µM | TGI (UACC-62 melanoma): 0.992 µM | GI50 (UO-31 renal): 13.2 µM | TGI (UO-31 renal): 46.4 µM
